Reference: US20030095958A1, “Inhibitors of bace” (priority 2001, published 2003)

molecular target: BACE (Homo sapiens, UniProt P56817); test: Ki Determination for the Inhibition of BACE (FS-1 peptide fluorescence cleavage assay); format: biochemical; conditions: apparent Ki; 50 nM BACE, 10 μM FS-1 substrate, 0.1M sodium acetate pH 4.5
Summary of the method: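 Human BACE (50 nM) was preincubated 15 min at room temperature with compound (2% DMSO) in 0.1 M sodium acetate pH 4.5, then 10 μM FS-1 peptide was added. Cleavage was followed by fluorescence (ex 355/em 495 nm), and apparent Ki came from fitting to the integrated competitive tight-binding inhibition equation.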

Sequence of BACE (P56817 46-501): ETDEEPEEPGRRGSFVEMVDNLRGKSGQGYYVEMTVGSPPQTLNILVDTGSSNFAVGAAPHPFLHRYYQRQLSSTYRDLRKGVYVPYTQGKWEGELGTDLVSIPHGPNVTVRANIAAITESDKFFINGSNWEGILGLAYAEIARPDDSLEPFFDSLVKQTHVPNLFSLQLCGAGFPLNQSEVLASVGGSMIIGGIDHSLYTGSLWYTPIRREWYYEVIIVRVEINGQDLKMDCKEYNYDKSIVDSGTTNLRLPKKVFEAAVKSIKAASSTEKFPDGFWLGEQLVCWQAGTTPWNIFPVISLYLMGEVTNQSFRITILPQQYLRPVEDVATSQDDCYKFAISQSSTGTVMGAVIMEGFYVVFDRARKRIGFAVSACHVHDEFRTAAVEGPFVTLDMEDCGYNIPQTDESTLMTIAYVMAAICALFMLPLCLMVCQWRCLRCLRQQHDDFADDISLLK

Row | Structure (SMILES) | Ki [µM]
1 | Fc1ccccc1-c1ccc(C2=CCNCC2)c(COc2ccccc2C(F)(F)F)c1 [Compound 372, 4-[2′-Fluoro-3-(2-trifluoromethyl-phenoxymethyl)-biphenyl-4-yl]-1,2,3,6-tetrahydro-pyridine] | < 3
2 | FC(F)(F)c1ccccc1OCc1cc(-c2ccccc2Cl)ccc1C1=CCNCC1 [Compound 373, 4-[2′-Chloro-3-(2-trifluoromethyl-phenoxymethyl)-biphenyl-4-yl]-1,2,3,6-tetrahydro-pyridine] | < 3
3 | Cc1ccccc1-c1ccc(C2=CCNCC2)c(COc2ccccc2C(F)(F)F)c1 [Compound 374, 4-[2′-Methyl-3-(2-trifluoromethyl-phenoxymethyl)-biphenyl-4-yl]-1,2,3,6-tetrahydro-pyridine] | < 3
4 | FC(F)(F)c1ccccc1OCc1cc(-c2ccccc2C(F)(F)F)ccc1C1=CCNCC1 [Compound 375, 4-[2′-Trifluoromethyl-3-(2-trifluoromethyl-phenoxymethyl)-biphenyl-4-yl]-1,2,3,6-tetrahydro-pyridine] | < 3
5 | Nc1ccccc1-c1ccc(C2=CCNCC2)c(COc2ccccc2C(F)(F)F)c1 [Compound 376, 4′-(1,2,3,6-Tetrahydro-pyridin-4-yl)-3′-(2-trifluoromethyl-phenoxymethyl)-biphenyl-2-ylamine] | 3 to 30
6 | FC(F)(F)c1ccccc1OCc1cc(Br)ccc1C1=CCNCC1 [Compound 377, 4-[4-Bromo-2-(2-trifluoromethyl-phenoxymethyl)-phenyl]-1,2,3,6-tetrahydro-pyridine] | 3 to 30
7 | OCc1ccccc1-c1ccc(C2=CCNCC2)c(COc2ccccc2C(F)(F)F)c1 [Compound 378, [4′-(1,2,3,6-Tetrahydro-pyridin-4-yl)-3′-(2-trifluoromethyl-phenoxymethyl)-biphenyl-2-yl]-methanol] | 3 to 30
8 | O=C(OCc1ccccc1-c1ccc(C2=CCNCC2)c(COc2ccccc2C(F)(F)F)c1)c1ccccc1 [Compound 379, Benzoic acid 4′-(1,2,3,6-tetrahydro-pyridin-4-yl)-3′-(2-trifluoromethyl-phenoxymethyl)-biphenyl-2-yl methyl ester] | < 3
9 | O=C(OCc1ccccc1-c1ccc(C2=CCNCC2)c(COc2ccccc2C(F)(F)F)c1)c1ccccc1C(F)(F)F [Compound 380, 2-Trifluoromethyl-benzoic acid 4′-(1,2,3,6-tetrahydro-pyridin-4-yl)-3′-(2-trifluoromethyl-phenoxymethyl)-biphenyl-2-ylmethyl ester] | < 3
10 | COC(=O)c1cc(C2=CCNCC2)c(COc2ccccc2C(F)(F)F)cc1Br [Compound 381, 2-Bromo-5-(1,2,3,6-tetrahydro-pyridin-4-yl)-4-(2-trifluoromethyl-phenoxymethyl)-benzoic acid methyl ester] | 3 to 30
11 | COC(=O)c1cc(C2=CCNCC2)c(COc2ccccc2C(F)(F)F)cc1C1=CCNCC1 [Compound 382, 2,5-Bis-(1,2,3,6-tetrahydro-pyridin-4-yl)-4-(2-trifluoromethyl-phenoxymethyl)-benzoic acid methyl ester] | 3 to 30
12 | COC(=O)c1cc(C2=CCNCC2)c(COc2ccccc2C(F)(F)F)cc1-c1ccoc1 [Compound 383, 2-Furan-3-yl-5-(1,2,3,6-tetrahydro-pyridin-4-yl)-4-(2-trifluoromethyl-phenoxymethyl)-benzoic acid methyl ester] | 3 to 30
13 | O=C(OCc1ccccc1-c1ccc(C2=CCNCC2)c(COc2ccccc2C(F)(F)F)c1)c1cccnc1Cl [Compound 384, 2-Chloro-nicotinic acid 4′-(1,2,3,6-tetrahydro-pyridin-4-yl)-3′-(2-trifluoromethyl-phenoxymethyl)-biphenyl-2-ylmethyl ester] | < 3
14 | O=C(OCc1cc(C2=CCNCC2)c(COc2ccccc2C(F)(F)F)cc1-c1ccoc1)c1cccnc1 [Compound 385, Nicotinic acid 2-furan-3-yl-5-(1,2,3,6-tetrahydro-pyridin-4-yl)-4-(2-trifluoromethyl-phenoxymethyl)-benzyl ester] | < 3
15 | O=C(OCc1cc(C2=CCNCC2)c(COc2ccccc2C(F)(F)F)cc1-c1ccoc1)c1cccnc1Cl [Compound 386, 2-Chloro-nicotinic acid 2-furan-3-yl-5-(1,2,3,6-tetrahydro-pyridin-4-yl)-4-(2-trifluoromethyl-phenoxymethyl)-benzyl ester] | < 3
16 | OCc1cc(C2=CCNCC2)c(COc2ccccc2C(F)(F)F)cc1-c1ccoc1 [Compound 387, [2-Furan-3-yl-5-(1,2,3,6-tetrahydro-pyridin-4-yl)-4-(2-trifluoromethyl-phenoxymethyl)-phenyl]-methanol] | 3 to 30

Row | Structure (SMILES) | Ki [µM]
17 | CN1CC=C(c2cc(CO)c(-c3ccoc3)cc2COc2ccccc2C(F)(F)F)CC1 [Compound 388, [2-Furan-3-yl-5-(1-methyl-1,2,3,6-tetrahydro-pyridin-4-yl)-4-(2-trifluoromethyl-phenoxymethyl)-phenyl]-methanol] | 3 to 30
18 | O=C(OCc1cc(C2=CCNCC2)c(COc2ccccc2C(F)(F)F)cc1-c1ccoc1)c1ccccn1 [Compound 389, Pyridine-2-carboxylic acid 2-furan-3-yl-5-(1,2,3,6-tetrahydro-pyridin-4-yl)-4-(2-trifluoromethyl-phenoxymethyl)-benzyl ester] | 3 to 30
19 | O=C(OCc1cc(C2=CCNCC2)c(COc2ccccc2C(F)(F)F)cc1-c1ccoc1)c1ccncc1 [Compound 390, Isonicotinic acid 2-furan-3-yl-5-(1,2,3,6-tetrahydro-pyridin-4-yl)-4-(2-trifluoromethyl-phenoxymethyl)-benzyl ester] | < 3
20 | c1ccc(-c2ccc(C3CCNCC3OCc3ccc4ccccc4c3)cc2)cc1 (stereo not shown) [Compound 401] | < 3
21 | O=C(Nc1ccc2ccccc2c1)C1CNCCC1c1ccc(-c2ccccc2)cc1 (stereo not shown) [Compound 402] | < 3
22 | O=C(Nc1ccc2ccccc2c1)NC1CNCCC1c1ccc(-c2ccccc2)cc1 (stereo not shown) [Compound 403] | 3 to 30
23 | CC(NC(=O)C1CNCCC1c1ccc(-c2ccccc2)cc1)c1cccc2ccccc12 (stereo not shown) [Compound 404] | 3 to 30
24 | CC(NC(=O)C1CNCCC1c1ccc(-c2ccccc2)cc1)c1cccc2ccccc12 (stereo not shown) [Compound 405] | 3 to 30
25 | CC(NC(=O)C1CNCCC1c1ccc(-c2ccccc2)cc1)c1cccc2ccccc12 (stereo not shown) [Compound 406] | 3 to 30
26 | CC(NC(=O)C1CNCCC1c1ccc(-c2ccccc2)cc1)c1cccc2ccccc12 (stereo not shown) [Compound 407] | 3 to 30
27 | OC1CNCC(COc2ccc3ccccc3c2)C1(O)c1ccc(-c2ccccc2)cc1 (stereo not shown) [Compound 412] | 3 to 30
28 | FC(F)(F)c1cccc(COC2CNCC(COc3ccc4ccccc4c3)C2c2ccc(-c3ccccc3)cc2)c1 (stereo not shown) [Compound 413] | < 3
29 | COc1ccc2c(c1)c1c(n2C(=O)c2ccc3ccccc3c2)CNCC1 [Compound 502, (6-Methoxy-1,2,3,4-tetrahydro-b-carbolin-9-yl)-naphthalen-2-yl-methanone] | > 30
30 | COc1ccc2c(c1)c1c(n2Cc2ccc3ccccc3c2)CNCC1 [Compound 503, 6-Methoxy-9-naphthalen-2-ylmethyl-2,3,4,9-tetrahydro-1H-b-carboline] | > 30
31 | O=C(c1cccc2ccccc12)n1c2c(c3cc(OCc4ccccc4C(F)(F)F)ccc31)CCNC2 [Compound 504, Naphthalen-1-yl-[6-(2-trifluoromethyl-benzyloxy)-1,2,3,4-tetrahydro-b-carbolin-9-yl]-methanone] | < 3
